Where two headings read alike, the source gives them in different places. Marks after values point to notes of the source that are not given here.
What was measured:
[1] = system: lambs; assay: Lamb carcass characteristics; assay type: in vivo; conditions: for Bone maturity: A0 = 1.0 ... A90 = 1.9; for Leg score: high Prime = 15 ... low Choice = 10; for Adjusted fat / Body wall thickness / Dressing percentage / Quality grade / Rib eye area / Yield grade: in vivo; for Hot carcass weight: lambs, 500 IU/kg/day for 45 days; for Flank streaking: trace = 1, slight = 2, small = 3
Description: (§1) Interim and final weights were taken on two consecutive days after 20 and 43 days on test, respectively, to calculate average daily weight gain (ADG) and feed conversion. On the 45th day on test, the lambs were transported to a commercial packing plant and slaughtered the following morning. Standard carcass data were collected.
Characteristics included hot carcass weight, adjusted fat, rib eye area, and body wall thickness. As indicated in the last two columns under Contrasts (P values), there were no statistically significant differences (P<0.05) in carcass measurements between the alpha and gamma groups or between the control group and the alpha and gamma groups.

[2] = system: lambs; assay: Growth performance in lambs; assay type: in vivo; conditions: for Interim BW: after 20 days on test; for Final BW: after 43 days on test
Description: The effects of diet supplementation with alpha-tocopherol and gamma-tocopherol on tissue oxidation and storage life of fresh meat from lambs fed a diet supplemented with tocopherol was studied. A total of 42 weaned Western white-faced lambs (4 ewes, 38 males) were used in a feeding trial. The lambs were housed two per pen in a slatted floor barn and initially fed chopped oat hay, then gradually acclimated to a beet pulp-based basal diet. The basal ration consisted of 82.2% beet pulp pellets, 9.5% chopped oat hay, 6.0% liquid molasses, 1.5% soybean meal, 0.8% mineralized salt, and monensin (30 g/ton). All lambs were given ad libitum access to the basal diet.
The basal diet was fed for 60 days and on days 61 and 62, lambs were weighed to calculate initial body weight. Lambs were blocked by weight, without regard to gender, and randomly assigned within weight blocks to pens, and pens were randomly assigned to dietary treatments (14 lambs/treatment).
as §1
The fourth column is standard error of measurement (SEM). The last two columns are P values for the statistical comparison of the alpha group versus the gamma group, and the control group versus the alpha and gamma groups.

[3] = system: pigs; assay: Japanese color score of pork loin in swine feeding trial; assay type: in vivo
Method: Applicants assessed the effects of gamma-tocopherol supplementation on meat quality in an experiment in which pork from pigs fed one of three dietary concentrations of gamma-tocopherol was compared to pork from pigs fed either no supplemental tocopherol in excess of amounts needed to support growth and development, or one of three dietary concentrations of alpha-tocopherol.
Young pigs were fed a diet containing 15 IU/kg feed (=15 mg/kg feed=[…]) vitamin E (in the form of alpha-tocopherol acetate) up to 120 pounds. Upon reaching 120 pounds, the pigs were randomly assigned to treatments using weight as a blocking factor. Sixteen pigs were allocated to the control diet, while thirteen pigs were allocated to each test diet. Treatments consisted of typical corn-soybean meal based diets with three levels of dietary tocopherol: (1) Control diet (15 mg/kg feed alpha-tocopherol acetate); (2) diets supplemented with 150, 300 or 450 mg/kg feed alpha-tocopherol acetate; and (3) diets supplemented with 150, 300 or 450 mg/kg feed gamma-tocopherol. Diets were formulated to provide adequate levels of all nutrients and fed in four phases.
The levels of alpha-tocopherol supplementation chosen were those previously shown to improve meat quality and the pigs consuming these diets were used as positive controls. Pigs consuming diets without additional supplementation of alpha or gamma-tocopherol were used as negative controls. Pork quality was assessed using standard methods, including pH, Japanese color score, oxidative stability, retail display appearance and Minolta color values.
The trial was terminated when the average weight of a treatment replicate reached 260 pounds (minimum of 60 days). Standard carcass data (hot carcass weight, backfat, loin depth and lean) were collected. In addition to the standard carcass data collected at the slaughter plant, color, pH, marbling, firmness and Hunter Lab data were collected. Loin and ham samples were also collected for determination of gamma-tocopherol concentration.
Data were analyzed using the GLM procedure of SAS. Due to a limited number of observations from the 150 IU alpha-tocopherol treatment, no estimates of carcass or loin quality measures are presented for that treatment. Data collected over a period of days were also analyzed as a splitplot. Contrasts were made between the Control and added tocopherol diets, Control and alpha-tocopherol, Control and gamma-tocopherol, and alpha- versus gamma-tocopherol.

[4] = Lamb loin antioxidant concentrations
[5] = male, sheep (lambs), in vivo
[6] = system: iron-loaded rats; conditions: ability to inhibit lipid peroxidation; cited from earlier work
[7] = in vivo; conditions: male, sheep (lambs)
[8] = pork loin, all supplemented levels pooled

Row | Structure (SMILES) | Bone maturity [1] | Leg score [1] | Adjusted fat [1] [cm] | Body wall thickness [1] [cm] | Dressing percentage [1] | Quality grade [1] | Rib eye area [1] [sq. cm] | Yield grade [1] | Hot carcass weight [1] [kg] | Flank streaking [1] | Gain: feed ([2]; 1st 20 Days) [g/kg] | Intake ([2]; 1st 20 Days) [kg/day] | ADG ([2]; 1st 20 Days, 500 IU/kg/day) [g/day] | ADG ([2]; 2nd 23 Days) | Gain: feed ([2]; 2nd 23 Days) | Intake ([2]; 2nd 23 Days) [kg/day] | ADG ([2]; Overall) [g/day] | Gain: feed ([2]; Overall) | Intake ([2]; Overall) [kg/day] | Interim BW [2] [kg] | other results
1 | Cc1c(C)c2c(c(C)c1O)CC[C@@](C)(CCC[C@H](C)CCC[C@H](C)CCCC(C)C)O2 [Alpha-tocopherol, alpha-tocopherol, reference compound] | 1.47^b | 10.8 | 0.55 | 2.13 | 48.2 | 5.27 | 5.63 | 2.42 | 27.4 | 3.02^a | 124.2 | 1.43 | 164.1 | 190.9^b g/d | 127.1^a g/kg | 1.54 | 182.3 | 126.0^a g/kg | 1.49 | 52.1 | ADG ([2]; 2nd 23 Days, listed as alpha-tocopherol): 190.9 g/day; Final BW [2]: 56.6 kg; Japanese Color Score ([3]; dietary level 300 IU): 3.56^ab; Japanese Color Score ([3]; dietary level 450 IU): 3.94^ab; Japanese Color Score [3, 8]: 3.75; Alpha-Tocopherol in loin ([4]; Day 1): 3.83^a μg/g; Gamma-Tocopherol in loin ([4]; Day 1): 0.30^b μg/g; Total antioxidant in loin ([4]; Day 1): 4.13^b μg/g; Alpha-Tocopherol in loin ([4]; Day 6): 6.22^a μg/g; Gamma-Tocopherol in loin ([4]; Day 6): 0.43^b μg/g; Total antioxidant in loin ([4]; Day 6): 6.70^b μg/g; Alpha-Tocopherol in loin ([4]; Overall): 5.04^a μg/g; Gamma-Tocopherol in loin ([4]; Overall): 0.37^b μg/g; Total antioxidant in loin ([4]; Overall): 5.41^b μg/g
2 | Cc1c(O)cc2c(c1C)O[C@](C)(CCC[C@H](C)CCC[C@H](C)CCCC(C)C)CC2 [Gamma-tocopherol, gamma-tocopherol] | 1.62^ab | 10.8 | 0.47 | 1.92 | 46.8 | 5.23 | 5.62 | 2.19 | 27.7 | 2.40^ab | 132.6 | 1.35 | 173.5 | 264.0^a g/d | 187.2^b g/kg | 1.45 | 221.9 | 162.8^b g/kg | 1.40 | 53.0 | Alpha-Tocopherol in loin [5]: 3.22^b μg/g; Increase of tissue gamma-tocopherol level over control treatment [5]: over 35 times; Total antioxidant in loin [5]: 9.57^a μg/g; Alpha-Tocopherol in loin ([5]; 1 day): 3.47^a μg/g; Total antioxidant in loin ([5]; 1 day): 10.6^a μg/g; Alpha-Tocopherol in loin ([5]; 6 day): 2.87^b μg/g; Total antioxidant in loin ([5]; 6 day): 8.47^a μg/g; antioxidant efficacy relative to alpha-tocopherol on a per unit mass basis [6]: about one-third; ADG ([2]; 2nd 23 Days, listed as gamma-tocopherol): 264.0 g/day; Final BW [2]: 59.1 kg; Japanese Color Score ([3]; dietary level 150 IU): 3.18^ab; Japanese Color Score ([3]; dietary level 300 IU): 4.32^a; Japanese Color Score ([3]; dietary level 450 IU): 3.56^ab; Japanese Color Score [3, 8]: 3.94; concentration at 1 day [7]: 7180 ng/g; concentration at 6 day [7]: 5570 ng/g
